Data as given in patent publication US20260225997A1, “IONIZABLE AMINE LIPIDS” (Intellia Therapeutics, Inc., priority 2018, published 2026).
Where two headings read alike, the source gives them in different places.

Legend:
TTR [1] = assay: Transthyretin (TTR) ELISA analysis of mouse serum after LNP dosing; type: in vivo; conditions: for response vs control in vivo at 0.1 mg/kg / response vs control in vivo at 0.03 mg/kg / inhibition in vivo at 0.03 mg/kg: Mus musculus, iv; for response vs control in vivo at 0.1 mg/kg / response vs control in vivo at 0.03 mg/kg: read-out: Serum TTR % TSS; for inhibition in vivo at 0.03 mg/kg: read-out: Serum TTR (% KD)
Protocol: (§1) CD-1 female mice, ranging from 6-10 weeks of age were used in each study. Animals were weighed and grouped according to body weight for preparing dosing solutions based on group average weight. LNPs were dosed via the lateral tail vein in a volume of 0.2 mL per animal (approximately 10 mL per kilogram body weight). The animals were periodically observed post dose for adverse effects for at least 24 hours post dose. Animals were euthanized at 6 or 7 days by exsanguination via cardiac puncture under isoflurane anesthesia. Blood was collected into serum separator tubes or into tubes containing buffered sodium citrate for plasma as described herein. For studies involving in vivo editing, liver tissue was collected from each animal for DNA extraction and analysis.
CD-1 female mice were dosed i.v. at 0.1 mpk or 0.3 mpk. […] For animals dosed with G282 targeting TTR, blood and the liver were collected and serum TTR and editing were measured. For animals dosed with G650 targeting B2M, liver was collected and editing was measured.
Blood was collected and the serum was isolated as indicated. The total mouse TTR serum levels were determined using a Mouse Prealbumin (Transthyretin) ELISA Kit (Aviva Systems Biology, Cat. OKIA00111). Briefly, sera were serial diluted with kit sample diluent to a final dilution of 10,000-fold for 0.1 mpk dose and 2,500-fold for 0.3 mpk. This diluted sample was then added to the ELISA plates and the assay was then carried out according to directions.

TTR [2] = assay: TTR editing in mouse liver by NGS after i.v. LNP delivery of Cas9 mRNA and sgRNA; type: in vivo; conditions: CD-1 female mice; for % Editing (TTR, liver): Example 55: 0.1 mpk i.v.
Protocol: Preparations of various LNP compositions were prepared with amine lipids. In assays for percent liver editing in mice, Cas9 mRNA and chemically modified sgRNA were formulated in LNPs, at either a 1:1 w/w ratio or a 1:2 w/w ratio. LNPs are formulated with a composition of a given ionizable lipid (e.g. an amine lipid), DSPC, cholesterol, and PEG-2k-DMG, with a 6.0 N:P ratio.
as §1
Cohorts of mice were measured for liver editing by Next-Generation Sequencing (NGS).
In brief, to quantitatively determine the efficiency of editing at the target location in the genome, genomic DNA was isolated and deep sequencing was utilized to identify the presence of insertions and deletions introduced by gene editing.
PCR primers were designed around the target site (e.g., B2M), and the genomic area of interest was amplified. Additional PCR was performed according to the manufacturer's protocols (Illumina) to add the necessary chemistry for sequencing. The amplicons were sequenced on an Illumina MiSeq instrument. The reads were aligned to the […] after eliminating those having low quality scores. The resulting files containing the reads were mapped to the reference genome (BAM files), where reads that overlapped the target region of interest were selected and the number of wild type reads versus the number of reads which contain an insertion, substitution, or deletion was calculated.
The editing percentage (e.g., the “editing efficiency” or “percent editing”) is defined as the total number of sequence reads with insertions or deletions over the total number of sequence reads, including wild type.
CD-1 female mice were dosed i.v. at 0.1 mpk or 0.3 mpk. At 6 days post-dose, animals were sacrificed. For animals dosed with G282 targeting TTR, blood and the liver were collected and serum TTR and editing were measured. For animals dosed with G650 targeting B2M, liver was collected and editing was measured.

[3] = pKa measurement of unformulated amine lipid (fluorescence, method of Jayaraman et al.); type: physicochemical; conditions: 100 μM in 0.1 M phosphate buffer pH 4.5-9.0
Protocol: The pKa of each amine lipid was determined according to the method in Jayaraman, et al. (Angewandte Chemie, 2012) with the following adaptations. […] Lipid was diluted to 100 μM in 0.1 M phosphate buffer (Boston Bioproducts) where the pH ranged from 4.5-9.0. Fluorescence intensity was measured using excitation and emission wavelengths of 321 nm and 448 nm.

[4] = Example 55: 0.1 mpk i.v., 7 days post-dose, G282 1:1
[5] = Example 59: 0.1 mpk i.v., 7 days post-dose, G282 1:1
[6] = Example 61: 0.1 mpk i.v., 7 days post-dose, G282 1:1
[7] = Example 62: 0.03 mpk i.v., 7 days post-dose, G282 1:2
[8] = Example 62: 0.1 mpk i.v., 7 days post-dose, G282 1:2
[9] = Example 64: Dose 0.03 mpk (table) i.v., 7 days post-dose, G282 1:1
[10] = 168 h, Example 61: 0.1 mpk i.v., 7 days post-dose, G282 1:1
[11] = 168 h, Example 64: Dose 0.03 mpk (table) i.v., 7 days post-dose, G282 1:1
[12] = Example 63: 0.03 mpk i.v., 7 days post-dose, G282 1:1
[13] = Example 63: 0.1 mpk i.v., 7 days post-dose, G282 1:1
[14] = 168 h, Example 63: 0.03 mpk i.v., 7 days post-dose, G282 1:1
[15] = 168 h, Example 63: 0.1 mpk i.v., 7 days post-dose, G282 1:1
[16] = Example 58: 0.1 mpk i.v., 6 days post-dose, G282 1:1

## CCCCCCCCCOC(=O)CCCCCCCN(CCO)CCCCCCC(OCCCCCCCC)OCCCCCCCC [Compound 10, nonyl 8-((7,7-bis(octyloxy)heptyl)(2-hydroxyethyl)amino)octanoate]
TTR [1]; [4]
  Serum TTR: 206 µg/mL
  Serum TTR (% TSS): 18 % TSS
TTR [1]; [5]
  Serum TTR: 80 µg/mL
TTR [1]; [6]
  Serum TTR: 330 µg/mL
TTR [1]; [7]
  Serum TTR: 424 µg/mL
TTR [1]; [8]
  Serum TTR: 179 µg/mL
TTR [1]; [9]
  Serum TTR: 409.2 µg/mL
TTR [1]; 168 h, Example 59: 0.1 mpk i.v., 7 days post-dose, G282 1:1
  response vs control in vivo at 0.1 mg/kg: 9%
TTR [1]; [10]
  response vs control in vivo at 0.1 mg/kg: 26%
TTR [1]; 168 h, Example 62: 0.03 mpk i.v., 7 days post-dose, G282 1:2
  response vs control in vivo at 0.03 mg/kg: 67%
TTR [1]; 168 h, Example 62: 0.1 mpk i.v., 7 days post-dose, G282 1:2
  response vs control in vivo at 0.1 mg/kg: 28%
TTR [1]; [11]
  inhibition in vivo at 0.03 mg/kg: 28.5%
TTR [2]; 7 days post-dose, G282 1:1
  % Editing (TTR, liver): 50%
TTR [2]; [5]
  Editing Mean % Indel: 60.1%
TTR [2]; [6]
  Editing Mean % Indel: 47.2%
TTR [2]; [7]
  Editing Mean % Indel: 15.6%
TTR [2]; [8]
  Editing Mean % Indel: 51.3%
TTR [2]; [9]
  Editing Mean % Indel: 27.2%
[3]
  pKa: 6.05

## CCCCCCCCCOC(=O)CCCCCCCN(CCCCCCC(OCCCCCCCC)OCCCCCCCC)CCCNC(C)=O [Compound 42, nonyl 8-((3-acetamidopropyl)(7,7-bis(octyloxy)heptyl)amino)octanoate]
TTR [1]; [9]
  Serum TTR: 571.6 µg/mL
TTR [1]; [11]
  inhibition in vivo at 0.03 mg/kg: 0.2%
TTR [2]; [9]
  Editing Mean % Indel: 9.6%
[3]
  pKa: 7.19

## CCCCCCCCOC(CCCCCCCN(CCO)CCCCCCCC(=O)OCCCCC)OCCCCCCCC [Compound 29, pentyl 8-((8,8-bis(octyloxy)octyl)(2-hydroxyethyl)amino)octanoate]
TTR [1]; [12]
  Serum TTR: 718.48 µg/mL
TTR [1]; [13]
  Serum TTR: 660.46 µg/mL
TTR [1]; [14]
  response vs control in vivo at 0.03 mg/kg: 89%
TTR [1]; [15]
  response vs control in vivo at 0.1 mg/kg: 81.8%
TTR [2]; [12]
  Editing Mean % Indel: 5.76%
TTR [2]; [13]
  Editing Mean % Indel: 15.96%
[3]
  pKa: 6.54

## CCCCCCCCOC(CCCCCCCN(CCO)CCCCCCCC(=O)OC(CC)CCCC)OCCCCCCCC (stereo not drawn) [Compound 30, heptan-3-yl 8-((8,8-bis(octyloxy)octyl)(2-hydroxyethyl)amino)octanoate]
TTR [1]; [12]
  Serum TTR: 514.23 µg/mL
TTR [1]; [13]
  Serum TTR: 125.89 µg/mL
TTR [1]; [14]
  response vs control in vivo at 0.03 mg/kg: 63.7%
TTR [1]; [15]
  response vs control in vivo at 0.1 mg/kg: 15.6%
TTR [2]; [12]
  Editing Mean % Indel: 27.64%
TTR [2]; [13]
  Editing Mean % Indel: 62.48%
[3]
  pKa: 6.48

## CCCCCCCCCOC(=O)CCCCCCCN(CCO)CCCCCCCC(OCCCCCC)OCCCCCC [Compound 8, nonyl 8-((8,8-bis(hexyloxy)octyl)(2-hydroxyethyl)amino)octanoate]
TTR [1]; [4]
  Serum TTR: 387 µg/mL
  Serum TTR (% TSS): 34 % TSS
TTR [2]; 7 days post-dose, G282 1:1
  % Editing (TTR, liver): 43%
[3]
  pKa: 6.37

## CCCCCCCCCOC(=O)CCCCCCCN(CCCCCCC(OCCCCCCCC)OCCCCCCCC)CCNC(C)=O [Compound 41, nonyl 8-((2-acetamidoethyl)(7,7-bis(octyloxy)heptyl)amino)octanoate]
TTR [1]; [9]
  Serum TTR: 567.1 µg/mL
TTR [1]; [11]
  inhibition in vivo at 0.03 mg/kg: 1%
TTR [2]; [9]
  Editing Mean % Indel: 2.4%
[3]
  pKa: 6.82

## CCCCCCCCCOC(=O)CCCCCCCN(CCO)CCCCCCCC(OCCCCCCC)OCCCCCCC [Compound 7, nonyl 8-((8,8-bis(heptyloxy)octyl)(2-hydroxyethyl)amino)octanoate]
TTR [1]; [4]
  Serum TTR: 234 µg/mL
  Serum TTR (% TSS): 21 % TSS
TTR [2]; 7 days post-dose, G282 1:1
  % Editing (TTR, liver): 50%
[3]
  pKa: 6.16

## CCCCCCCCCCOC(=O)CCCCCCN(CCO)CCCCCCCC(OCCCCCCCC)OCCCCCCCC [Compound 12, decyl 7-((8,8-bis(octyloxy)octyl)(2-hydroxyethyl)amino)heptanoate]
TTR [1]; [16]
  Serum TTR: 490 µg/mL
TTR [1]; 144 h, Example 58: 0.1 mpk i.v., 6 days post-dose, G282 1:1
  response vs control in vivo at 0.1 mg/kg: 50%
TTR [2]; [16]
  Editing Mean % Indel: 33.0%
[3]
  pKa: 6.38

## CCCCCCCCCOC(=O)CCCCCCCN(CCO)CCCCCCCCC(OCCCCCCCC)OCCCCCCCC [Compound 9, nonyl 8-((9,9-bis(octyloxy)nonyl)(2-hydroxyethyl)amino octanoate]
TTR [1]; [6]
  Serum TTR: 218 µg/mL
TTR [1]; [10]
  response vs control in vivo at 0.1 mg/kg: 17%
TTR [2]; [6]
  Editing Mean % Indel: 52.1%
[3]
  pKa: 6.12
